Experiments:
human CD38 = target: T1, human CD38 (Homo sapiens, UniProt P28907); assay: NAD+ cyclase activity assay with human recombinant CD38 protein (ε-NAD fluorescence); type: biochemical; conditions: 1.9 nM human CD38, substrate ε-NAD, 30 min preincubation, fluorescence 300/410 nm
T1 construct: purchased Bio-Techne GmbH AVI2404
T1 sequence (P28907 1-300): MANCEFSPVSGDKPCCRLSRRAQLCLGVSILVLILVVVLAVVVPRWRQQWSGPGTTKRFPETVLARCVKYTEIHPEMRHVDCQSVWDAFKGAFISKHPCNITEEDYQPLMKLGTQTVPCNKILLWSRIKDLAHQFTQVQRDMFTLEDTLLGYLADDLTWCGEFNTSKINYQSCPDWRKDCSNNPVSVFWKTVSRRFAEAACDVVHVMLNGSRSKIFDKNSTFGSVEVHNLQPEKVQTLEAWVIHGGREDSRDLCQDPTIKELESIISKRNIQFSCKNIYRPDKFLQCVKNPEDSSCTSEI
Summary of the method: (§1)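 Twelve-point threefold compound dilutions were given 30 min at room temperature with 0.6 nM mouse or 1.9 nM human CD38 before […] ε-NAD was added (pH 7.5 HEPES/sucrose/Tween buffer). The rate came from the linear-phase slope of ex 300/em 410 nm fluorescence against vehicle and no-CD38 controls.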

mouse CD38 = target: T2, mouse CD38 (Mus musculus, UniProt P56528); assay: NAD+ cyclase activity assay with mouse recombinant CD38 protein (ε-NAD fluorescence); type: biochemical; conditions: 0.6 nM mouse CD38, substrate ε-NAD, 30 min preincubation, fluorescence 300/410 nm
T2 construct: purchased Bio-Techne GmbH 4947-AC
T2 sequence (P56528 1-304): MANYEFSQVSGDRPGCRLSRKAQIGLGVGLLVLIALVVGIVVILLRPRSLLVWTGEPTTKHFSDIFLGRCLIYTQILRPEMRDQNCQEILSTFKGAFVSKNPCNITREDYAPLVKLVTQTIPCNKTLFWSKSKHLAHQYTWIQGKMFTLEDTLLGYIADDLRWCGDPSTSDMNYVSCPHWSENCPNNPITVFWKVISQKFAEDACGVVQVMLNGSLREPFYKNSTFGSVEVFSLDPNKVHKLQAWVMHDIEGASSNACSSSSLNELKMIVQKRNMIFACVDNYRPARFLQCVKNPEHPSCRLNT
Summary of the method: as §1

CC(C1CCC(NC(=O)c2ccc3c(c2)-c2cncn2CCO3)CC1)C(F)(F)F (stereo not drawn) [Compound 133A, N-(4-(1,1,1-Trifluoropropan-2-yl)cyclohexyl)-5,6-dihydrobenzo[f]imidazo[1,5-d][1,4]oxazepine-10-carboxamide]
IC50 (human CD38): 30 to 100 nM
IC50 (mouse CD38): 1 to 10 nM

CC(C)(CO[C@H]1CC[C@@H](NC(=O)c2ccc3c(c2)-c2cncn2CCO3)CC1)C(F)(F)F [Compound 121A, N-((1s,4s)-4-(3,3,3-Trifluoro-2,2-dimethylpropoxy)cyclohexyl)-5,6-dihydrobenzo[f]imidazo[1,5-d][1,4]oxazepine-10-carboxamide]
IC50 (human CD38): > 1000 nM
IC50 (mouse CD38): > 100 nM

COCCNc1nc2cc(NC(=O)c3ccc4c(c3)-c3cncn3CCO4)ccc2s1 [Compound 48A, N-(2-((2-Methoxyethyl)amino)benzo[d]thiazol-5-yl)-5,6-dihydrobenzo[f]imidazo[1,5-d][1,4]oxazepine-10-carboxamide]
IC50 (human CD38): < 30 nM
IC50 (mouse CD38): 1 to 10 nM

CN1CCOc2cc(NC(=O)c3ccc4c(c3)-c3cncn3CCO4)cnc21 [Compound 98A, N-(4-Methyl-3,4-dihydro-2H-pyrido[3,2-b][1,4]oxazin-7-yl)-5,6-dihydrobenzo[f]imidazo[1,5-d][1,4]oxazepine-10-carboxamide]
IC50 (human CD38): < 30 nM
IC50 (mouse CD38): 1 to 10 nM

COCCO[C@H]1CC[C@H](NC(=O)c2cc(OC)c3c(c2)-c2cncn2CCO3)CC1 [Compound 54A, 8-Methoxy-N-((1r,4r)-4-(2-methoxyethoxy)cyclohexyl)-5,6-dihydrobenzo[f]imidazo[1,5-d][1,4]oxazepine-10-carboxamide]
IC50 (human CD38): < 30 nM
IC50 (mouse CD38): 1 to 10 nM

O=C(N[C@H]1CC[C@@H](N2CCC(F)(F)C2)CC1)c1ccc2c(c1)-c1cncn1CCO2 [Compound 69A, N-((1s,4s)-4-(3,3-Difluoropyrrolidin-1-yl)cyclohexyl)-5,6-dihydrobenzo[f]imidazo[1,5-d][1,4]oxazepine-10-carboxamide]
IC50 (human CD38): 100 to 1000 nM
IC50 (mouse CD38): 10 to 100 nM

O=C(Nc1cnc(OCC(F)(F)F)nc1)c1ccc2c(c1)-c1cncn1CCO2 [Compound 109A, N-(2-(2,2,2-Trifluoroethoxy)pyrimidin-5-yl)-5,6-dihydrobenzo[f]imidazo[1,5-d][1,4]oxazepine-10-carboxamide]
IC50 (human CD38): < 30 nM
IC50 (mouse CD38): 1 to 10 nM

O=C(N[C@H]1CC[C@@H](OCC2(C(F)(F)F)CC2)CC1)c1ccc2c(c1)-c1cncn1CCO2 [Compound 118A, N-((1s,4s)-4-((1-(Trifluoromethyl)cyclopropyl)methoxy)cyclohexyl)-5,6-dihydrobenzo[f]imidazo[1,5-d][1,4]oxazepine-10-carboxamide]
IC50 (human CD38): > 1000 nM
IC50 (mouse CD38): > 100 nM

COCCOc1ncc(NC(=O)c2ccc3c(c2)-c2cncn2CCO3)cn1 [Compound 81A, N-(2-(2-Methoxyethoxy)pyrimidin-5-yl)-5,6-dihydrobenzo[f]imidazo[1,5-d][1,4]oxazepine-10-carboxamide]
IC50 (human CD38): < 30 nM
IC50 (mouse CD38): 1 to 10 nM

O=C(NC1CC2(CCC2)C1)c1cc(F)c2c(c1)-c1cncn1CCO2 [Compound 159A, 8-Fluoro-N-(spiro[3.3]heptan-2-yl)-5,6-dihydrobenzo[f]imidazo[1,5-d][1,4]oxazepine-10-carboxamide]
IC50 (human CD38): < 30 nM
IC50 (mouse CD38): < 1 nM

CC1(C)COc2ccc(C(=O)N[C@@H]3CCCOC3)cc2-c2cncn21 [Compound 51A, (R)-5,5-Dimethyl-N-(tetrahydro-2H-pyran-3-yl)-5,6-dihydrobenzo[f]imidazo[1,5-d][1,4]oxazepine-10-carboxamide]
IC50 (human CD38): > 1000 nM
IC50 (mouse CD38): > 100 nM

CC1COc2ccc(C(=O)N[C@@H]3CCCOC3)cc2-c2cncn21 (stereo partly drawn) [Compound 68A, 5-Methyl-N—((R)-tetrahydro-2H-pyran-3-yl)-5,6-dihydrobenzo[f]imidazo[1,5-d][1,4]oxazepine-10-carboxamide]
IC50 (human CD38): 100 to 1000 nM
IC50 (mouse CD38): 10 to 100 nM

O=C(N[C@H]1CC[C@H](OC2CC(F)(F)C2)CC1)c1cc(Cl)c2c(c1)-c1cncn1CCO2 [Compound 172A, N-((1r,4r)-4-(3,3-difluorocyclobutoxy)cyclohexyl)-8-chloro-5,6-dihydrobenzo[f]imidazo[1,5-d][1,4]oxazepine-10-carboxamide]
IC50 (human CD38): < 30 nM
IC50 (mouse CD38): 1 to 10 nM

O=C(NC1CCC(CC(F)(F)F)CC1)c1ccc2c(c1)-c1cncn1CCO2 (stereo not drawn) [Compound 119A, N-(4-(2,2,2-Trifluoroethyl)cyclohexyl)-5,6-dihydrobenzo[f]imidazo[1,5-d][1,4]oxazepine-10-carboxamide]
IC50 (human CD38): < 30 nM
IC50 (mouse CD38): 1 to 10 nM

O=C(N[C@H]1CC[C@@H](OCCC(F)F)CC1)c1ccc2c(c1)-c1cncn1CCO2 [Compound 77A, N-((1s,4s)-4-(3,3-Difluoropropoxy)cyclohexyl)-5,6-dihydrobenzo[f]imidazo[1,5-d][1,4]oxazepine-10-carboxamide]
IC50 (human CD38): < 30 nM
IC50 (mouse CD38): 1 to 10 nM

O=C(N[C@H]1CC[C@H](OC2CC(F)(F)C2)CC1)c1cc(F)c2c(c1)-c1cncn1CCO2 [Compound 166A, N-((1r,4r)-4-(3,3-Difluorocyclobutoxy)cyclohexyl)-8-fluoro-5,6-dihydrobenzo[f]imidazo[1,5-d][1,4]oxazepine-10-carboxamide]
IC50 (human CD38): < 30 nM
IC50 (mouse CD38): 1 to 10 nM

O=C(N[C@H]1CC[C@@H](O[C@H]2C[C@@H](F)C2)CC1)c1ccc2c(c1)-c1cncn1CCO2 [Compound 149A, N-((1s,4s)-4-((1s,3s)-3-Fluorocyclobutoxy)cyclohexyl)-5,6-dihydrobenzo[f]imidazo[1,5-d][1,4]oxazepine-10-carboxamide]
IC50 (human CD38): 100 to 1000 nM
IC50 (mouse CD38): 10 to 100 nM

C[C@H]1CCCC[C@@H]1NC(=O)c1cc(F)c2c(c1)-c1cncn1CCO2 (relative stereo) [Compound 174A, 8-Fluoro-N-(trans-2-methylcyclohexyl)-5,6-dihydrobenzo[f]imidazo[1,5-d][1,4]oxazepine-10-carboxamide]
IC50 (human CD38): < 30 nM
IC50 (mouse CD38): < 1 nM

O=C(N[C@H]1CC[C@H](C(F)(F)F)CC1)c1ccc2c(c1)-c1cncn1CCO2 [Compound 52A, N-((1r,4r)-4-(Trifluoromethyl)cyclohexyl)-5,6-dihydrobenzo[f]imidazo[1,5-d][1,4]oxazepine-10-carboxamide]
IC50 (human CD38): < 30 nM
IC50 (mouse CD38): 1 to 10 nM

O=C(Nc1cnc2c(c1)OCCO2)c1ccc2c(c1)-c1cncn1CCO2 [Compound 31A, N-(2,3-Dihydro-[1,4]dioxino[2,3-b]pyridin-7-yl)-5,6-dihydrobenzo[f]imidazo[1,5-d][1,4]oxazepine-10-carboxamide]
IC50 (human CD38): < 30 nM
IC50 (mouse CD38): 1 to 10 nM

N-((1r,4r)-4-((1-(Trifluoromethyl)cyclopropyl)methoxy)cyclohexyl)-5,6-dihydrobenzo[f]imidazo[1,5-d][1,4]oxazepine-10-carboxamide [Compound 142A]
IC50 (human CD38): < 30 nM
IC50 (mouse CD38): 1 to 10 nM

O=C(N[C@H]1CC[C@H](N2CC(F)(F)C2)CC1)c1ccc2c(c1)-c1cncn1CCO2 [Compound 72A, N-((1r,4r)-4-(3,3-Difluoroazetidin-1-yl)cyclohexyl)-5,6-dihydrobenzo[f]imidazo[1,5-d][1,4]oxazepine-10-carboxamide]
IC50 (human CD38): < 30 nM
IC50 (mouse CD38): < 1 nM

CC1(NC(=O)c2cc(Cl)c3c(c2)-c2cncn2CCO3)CCCCC1 [Compound 163A, 8-Chloro-N-(1-methylcyclohexyl)-5,6-dihydrobenzo[f]imidazo[1,5-d][1,4]oxazepine-10-carboxamide]
IC50 (human CD38): < 30 nM
IC50 (mouse CD38): 1 to 10 nM

O=C(N[C@@H]1CCCOC1)c1ccc2c(c1)-n1ccnc1CCO2 [Compound 14A, (R)—N-(Tetrahydro-2H-pyran-3-yl)-4,5-dihydrobenzo[b]imidazo[1,2-d][1,4]oxazepine-9-carboxamide]
IC50 (human CD38): > 1000 nM
IC50 (mouse CD38): > 100 nM

O=C(N[C@H]1CC[C@H](OCCC(F)(F)F)CC1)c1ccc2c(c1)-c1cncn1CCO2 [Compound 90A, N-((1r,4r)-4-(3,3,3-Trifluoropropoxy)cyclohexyl)-5,6-dihydrobenzo[f]imidazo[1,5-d][1,4]oxazepine-10-carboxamide]
IC50 (human CD38): < 30 nM
IC50 (mouse CD38): < 1 nM

CC(C)(CO[C@H]1CC[C@@H](NC(=O)c2cc(F)c3c(c2)-c2cncn2CCO3)CC1)C(F)(F)F [Compound 168A, 8-Fluoro-N-((1s,4s)-4-(3,3,3-trifluoro-2,2-dimethylpropoxy)cyclohexyl)-5,6-dihydrobenzo[f]imidazo[1,5-d][1,4]oxazepine-10-carboxamide]
IC50 (human CD38): 100 to 1000 nM
IC50 (mouse CD38): > 100 nM

O=C(NC1CCCC(C(F)(F)F)C1)c1ccc2c(c1)-c1cncn1CCO2 (stereo not drawn) [Compound 151A, N-(3-(Trifluoromethyl)cyclohexyl)-5,6-dihydrobenzo[f]imidazo[1,5-d][1,4]oxazepine-10-carboxamide]
IC50 (human CD38): < 30 nM
IC50 (mouse CD38): 1 to 10 nM

Reference: US20260138990A1, “TRICYCLIC FUSED IMIDAZOLE COMPOUNDS AS CD38 MODULATORS AND USES THEREOF” (AEOVIAN PHARMACEUTICALS, INC., priority 2023, published 2026)
